pIC50: −log10 of the molar value. Active and inactive are the calls of the source. The rule behind the calls is not given here.
Tests used:
[1] = biological target: T1, Tyrosine-protein kinase ZAP-70 (Homo sapiens) (UniProt P43403); assay: Inhibition of full-length ZAP70 (unknown origin) at 20 uM by radioactive ATP method
T1 sequence (whole entry): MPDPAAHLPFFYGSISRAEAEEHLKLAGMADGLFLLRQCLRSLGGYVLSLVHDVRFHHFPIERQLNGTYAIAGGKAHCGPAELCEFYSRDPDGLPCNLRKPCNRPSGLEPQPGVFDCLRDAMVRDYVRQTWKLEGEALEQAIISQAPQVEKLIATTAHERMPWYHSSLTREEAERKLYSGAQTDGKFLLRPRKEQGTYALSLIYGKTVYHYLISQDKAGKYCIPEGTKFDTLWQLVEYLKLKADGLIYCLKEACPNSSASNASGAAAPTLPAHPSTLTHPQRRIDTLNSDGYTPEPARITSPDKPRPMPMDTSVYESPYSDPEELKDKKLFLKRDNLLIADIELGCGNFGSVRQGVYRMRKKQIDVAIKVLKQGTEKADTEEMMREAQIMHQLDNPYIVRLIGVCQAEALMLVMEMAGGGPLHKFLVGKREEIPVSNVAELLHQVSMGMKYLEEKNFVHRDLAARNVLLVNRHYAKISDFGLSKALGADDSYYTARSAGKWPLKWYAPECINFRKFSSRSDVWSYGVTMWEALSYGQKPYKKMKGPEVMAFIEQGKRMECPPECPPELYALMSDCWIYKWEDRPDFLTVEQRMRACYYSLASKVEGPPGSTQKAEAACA

[2] = biological target: T2, Tyrosine-protein kinase SYK (Homo sapiens, UniProt P43405); assay: Inhibition of SYK (unknown origin) by radioactive ATP method
[3] = biological target: T3, Tyrosine-protein kinase ZAP-70 (Homo sapiens, UniProt P43403); assay: Inhibition of full-length ZAP70 (unknown origin) by radioactive ATP method
T3 sequence (P43403 whole entry): T1 sequence (whole entry)

[4] = biological target: T4, Tyrosine-protein kinase JAK2 (Homo sapiens, UniProt O60674); assay: Inhibition of JAK2 (unknown origin) at 20 uM by radioactive ATP method
[5] = biological target: T2, Tyrosine-protein kinase SYK; assay: Inhibition of SYK (unknown origin) at 20 uM by radioactive ATP method
[6] = biological target: T4, Tyrosine-protein kinase JAK2; assay: Inhibition of JAK2 (unknown origin) by radioactive ATP method

T4 sequence (O60674 whole entry): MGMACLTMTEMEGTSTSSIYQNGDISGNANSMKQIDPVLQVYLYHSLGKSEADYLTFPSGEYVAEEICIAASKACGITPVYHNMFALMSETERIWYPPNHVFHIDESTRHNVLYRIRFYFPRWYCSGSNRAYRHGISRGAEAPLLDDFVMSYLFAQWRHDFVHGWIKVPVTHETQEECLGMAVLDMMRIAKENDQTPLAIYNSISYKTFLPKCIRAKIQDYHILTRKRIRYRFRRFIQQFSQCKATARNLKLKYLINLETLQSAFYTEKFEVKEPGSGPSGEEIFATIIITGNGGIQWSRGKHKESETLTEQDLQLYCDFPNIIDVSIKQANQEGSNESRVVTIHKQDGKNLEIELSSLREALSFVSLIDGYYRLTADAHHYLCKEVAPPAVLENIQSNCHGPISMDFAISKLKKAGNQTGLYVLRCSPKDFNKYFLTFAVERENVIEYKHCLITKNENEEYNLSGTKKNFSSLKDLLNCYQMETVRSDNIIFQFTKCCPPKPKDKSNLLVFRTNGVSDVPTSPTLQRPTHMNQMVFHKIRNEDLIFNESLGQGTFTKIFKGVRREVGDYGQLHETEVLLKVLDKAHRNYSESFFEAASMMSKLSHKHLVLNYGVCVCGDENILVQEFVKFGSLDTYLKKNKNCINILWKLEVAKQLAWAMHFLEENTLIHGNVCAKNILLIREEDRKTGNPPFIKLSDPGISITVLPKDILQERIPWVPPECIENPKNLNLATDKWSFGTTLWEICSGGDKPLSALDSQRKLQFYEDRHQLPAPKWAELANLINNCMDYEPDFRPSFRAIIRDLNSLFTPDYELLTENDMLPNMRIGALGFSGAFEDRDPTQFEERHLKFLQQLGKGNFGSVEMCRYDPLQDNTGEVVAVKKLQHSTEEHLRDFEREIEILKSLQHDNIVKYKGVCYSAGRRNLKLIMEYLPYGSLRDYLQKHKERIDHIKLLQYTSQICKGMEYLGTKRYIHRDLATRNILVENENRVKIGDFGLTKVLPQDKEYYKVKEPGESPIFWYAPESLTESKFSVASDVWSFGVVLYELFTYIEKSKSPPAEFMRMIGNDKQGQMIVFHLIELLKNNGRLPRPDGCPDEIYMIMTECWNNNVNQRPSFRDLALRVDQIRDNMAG

Row | Compound | inhibition [1] | further results
1 | COc1ccc(/C=C2/NC(=O)N(c3cccc(Cl)c3)C2=O)cc1O | inactive | 
2 | Cc1cc(NC(=O)c2sc(Nc3ccccc3)nc2N)on1 | inactive | 
3 | O=C1NC(=O)N(c2ccc(F)cc2)C(=O)/C1=C\c1cccn1-c1ccc(O)cc1 | inactive | 
4 | Cc1ccc2[nH]c3c(c2c1)CCC1C3=NNC1c1ccccc1 (stereo unspecified) | inactive | 
5 | O=C1NC(=S)N/C1=C1\C(=O)N(Cc2ccccc2Cl)c2ccccc21 |  | pIC50 [2]: 3.77; pIC50 [3]: 4.68
6 | COc1cccc(-c2ccnc3[nH]n(-c4ccccc4)c(=O)c23)c1 | inactive | 
7 | O=C1NN(c2ccc(F)cc2)C(=O)/C1=C\c1cccc(OCc2ccccc2F)c1 | 46% | inhibition [4]: 22%; inhibition [5]: 16%
8 | COc1ccc(Nc2nc(N3CCOCC3)c3nc[nH]c3n2)cc1OC |  | pIC50 [6]: 6.96; pIC50 [2]: 4.92; pIC50 [3]: 4.21
9 | O=C(c1ccc2[nH]cnc2c1)N1CCc2[nH]nc(-c3cccc(Cl)c3)c2C1 | inactive | 
10 | O=c1[nH]c2ccc(S(=O)(=O)NC3CC3)cc2c2ccccc12 | inactive | 
11 | O=C1Nc2ccc3c(oc4ccccc43)c2C1=NNc1ccncc1 |  | pIC50 [6]: 4.96; pIC50 [2]: 4.59; pIC50 [3]: 5.10
12 | O=C(c1ccc2[nH]c(=O)[nH]c2c1)N1CCc2[nH]nc(-c3ccccc3)c2C1 | inactive | 
13 | O=C1N/C(=C/c2ccc(O)cc2)C(=O)N1c1ccccc1 | inactive | 
14 | O=C1NN(c2ccccc2)C(=O)/C1=C\c1cc(Cl)ccc1OCc1ccccc1 |  | pIC50 [6]: 4.82; inhibition [5]: 16%; pIC50 [3]: 4.66
15 | COc1ccc(NC2=NC3NN=C(N)C3C3=C2CN(C)CC3)cc1 (stereo unspecified) | inactive | 
16 | Nc1ccc(C(=O)N2CCc3[nH]nc(-c4cc(F)cc(F)c4)c3C2)cn1 | inactive | 

Row | Compound | inhibition [1] | further results
17 | O=C1NC(=O)N(c2cccc(F)c2)C(=O)/C1=C\c1cccn1-c1ccccc1 | inactive | 
18 | O=C1NC(=O)N(c2ccccc2F)C(=O)/C1=C\c1cccn1-c1ccccc1 | inactive | 
19 | O=C1Nc2ccccc2/C1=C(\c1ccccc1)c1nc2ccccc2[nH]1 |  | pIC50 [2]: 4.40; pIC50 [3]: 4.59
20 | Oc1ccc(-c2ccnc3cc(Cl)ccc23)cc1CN1CCCCC1 | inactive | 
21 | CCOc1ccc(Nc2nc(N)c(C(=O)c3cccc(OC)c3)s2)cc1 |  | pIC50 [2]: < 3.70; pIC50 [3]: 4.54
22 | CC(C)c1ccc(-c2c(C#N)c(N)nc3sc(C(N)=O)c(N)c23)cc1 | inactive | 
23 | N[C@@H](CO)C(=O)N1CCc2[nH]nc(-c3ccc(F)c(F)c3)c2C1 | inactive | 
24 | O=C1NN(c2ccccc2)C(=O)/C1=C/c1ccc(-c2ccccc2)o1 | 49% | inhibition [5]: 17%
25 | O=C1Nc2ccc(S(=O)(=O)Cc3ccc4ccccc4c3)c3cccc1c23 | inactive | 
26 | N#C/C(=C1/C(=O)Nc2ccccc21)c1nc2ccccc2[nH]1 | inactive | 
27 | Cc1ccc(-c2n[nH]c3c2CN(c2ncc(F)c(NCCO)n2)CC3)cc1 | inactive | 
28 | CCn1c(N)c(-c2csc(-c3ccc(O)cc3)n2)c(=O)[nH]c1=O | inactive | 
29 | Clc1cccc(C2C=C(c3cccnc3)Nc3nc4ccccc4n32)c1 (stereo unspecified) | inactive | 
30 | O=C1NN(c2ccccc2)C(=O)/C1=C/c1ccc(-c2ccccc2Cl)o1 |  | pIC50 [2]: 4.24; pIC50 [3]: 4.85
31 | Cc1cc(/C=C2/C(=O)NN(c3ccccc3)C2=O)c(C)n1-c1cccc(O)c1 | 43% | inhibition [5]: 16%
32 | CC(=O)Nc1ccc(OS(=O)(=O)c2ccc3[nH]c(=O)[nH]c3c2)cc1 | inactive | 
